In ChEMBL document CHEMBL5528064, “Invention of MK-7845, a SARS-CoV-2 3CL Protease Inhibitor Employing a Novel Difluorinated Glutamine Mimic” (J Med Chem, 2024):
Values after ≈ are worked out from the molar mass of the structure shown.

Experiments:
[1] = biological target: T1, Nuclear receptor subfamily 1 group I member 2 (Homo sapiens, UniProt O75469); assay: Activation of PXR (unknown origin); assay type: toxicity
T1 sequence (O75469 whole entry): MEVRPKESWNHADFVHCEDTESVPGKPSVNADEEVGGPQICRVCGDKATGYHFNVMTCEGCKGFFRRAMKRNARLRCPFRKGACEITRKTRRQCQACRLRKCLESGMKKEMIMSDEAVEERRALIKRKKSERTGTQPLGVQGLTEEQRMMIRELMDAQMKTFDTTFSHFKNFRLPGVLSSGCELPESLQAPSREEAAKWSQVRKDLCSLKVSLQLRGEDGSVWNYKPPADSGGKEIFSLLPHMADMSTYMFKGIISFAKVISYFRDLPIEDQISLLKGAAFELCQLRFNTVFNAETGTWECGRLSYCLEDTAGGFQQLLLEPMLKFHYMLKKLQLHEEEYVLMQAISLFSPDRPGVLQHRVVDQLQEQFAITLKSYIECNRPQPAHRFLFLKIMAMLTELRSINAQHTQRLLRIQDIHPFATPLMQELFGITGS

[2] = Oral bioavailability in rat at 3 mg/kg measured upto 24 hrs by LC-MS analysis; assay type: ADME, organism-based; conditions: in vivo
SARS-CoV-2 [3] = assay: Antiviral activity against ancestral SARS-CoV-2 WA1/2020 infected in human A549-hACE2-TMPRSS2 cells assessed as inhibition of virus induced cytopathic effect incubated for 72 hrs by celltiter glo assay; assay type: functional, organism-based; conditions: Severe acute respiratory syndrome coronavirus 2, WA1/2020, A549-hACE2-TMPRSS2, 72 h
SARS-CoV-2 [4] = assay: Antiviral activity against SARS-CoV-2 Delta B.1.617 AY-2 infected in human A549-hACE2-TMPRSS2 cells assessed as inhibition of virus induced cytopathic effect incubated for 72 hrs by celltiter glo assay; assay type: functional, organism-based; conditions: Severe acute respiratory syndrome coronavirus 2, Delta B.1.617 AY-2, A549-hACE2-TMPRSS2, 72 h
[5] = Volume of distribution at steady state in rat by measuring compound and its epimer at 3 mg/kg, po or 1 mg/kg, iv measured upto 24 hrs by LC-MS analysis; assay type: ADME, organism-based; conditions: in vivo
[6] = Volume of distribution at steady state in dog by measuring compound and its epimer at 3 mg/kg, po or 1 mg/kg, iv measured upto 24 hrs by LC-MS analysis; assay type: ADME, organism-based, Canis lupus familiaris; conditions: in vivo
[7] = biological target: T2, PXR (nuclear receptor subfamily 1 group I member 2) (Homo sapiens, UniProt O75469); assay: Activation of PXR (unknown origin) assessed as maximal activation at 30 uM relative to control; assay type: toxicity; conditions: read-out: Activity
T2 sequence (O75469 whole entry): T1 sequence (O75469 whole entry)

Cytochrome P450 2B6 [8] = biological target: T3, Cytochrome P450 2B6 (Homo sapiens, UniProt P20813); assay: Induction of CYP2B6 in human hepatocytes assessed as increase in CYP2B6 mRNA level at 20 uM measured after 48 hrs by PCR analysis relative to control; assay type: ADME, cell-based, Hepatocyte
T3 sequence (P20813 whole entry): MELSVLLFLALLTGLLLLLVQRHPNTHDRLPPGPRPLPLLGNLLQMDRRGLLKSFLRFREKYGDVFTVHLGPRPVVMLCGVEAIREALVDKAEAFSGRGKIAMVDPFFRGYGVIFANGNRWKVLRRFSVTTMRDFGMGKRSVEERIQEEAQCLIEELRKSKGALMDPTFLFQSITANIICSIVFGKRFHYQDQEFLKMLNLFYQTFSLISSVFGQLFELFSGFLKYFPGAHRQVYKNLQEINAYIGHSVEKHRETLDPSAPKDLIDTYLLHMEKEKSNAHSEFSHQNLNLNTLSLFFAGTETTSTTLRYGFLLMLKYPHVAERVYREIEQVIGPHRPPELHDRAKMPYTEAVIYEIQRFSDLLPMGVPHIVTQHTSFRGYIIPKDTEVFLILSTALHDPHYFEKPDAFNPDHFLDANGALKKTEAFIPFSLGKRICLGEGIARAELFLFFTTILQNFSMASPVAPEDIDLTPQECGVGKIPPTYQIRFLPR

Cytochrome P450 3A4 = Cytochrome P450 3A4 (Homo sapiens, UniProt P08684); assay: Induction of CYP3A4 in human hepatocytes assessed as increase in CYP3A4 mRNA level at 20 uM measured after 48 hrs by PCR analysis relative to control; assay type: ADME, cell-based, Hepatocyte
Sequence of Cytochrome P450 3A4 (P08684 whole entry): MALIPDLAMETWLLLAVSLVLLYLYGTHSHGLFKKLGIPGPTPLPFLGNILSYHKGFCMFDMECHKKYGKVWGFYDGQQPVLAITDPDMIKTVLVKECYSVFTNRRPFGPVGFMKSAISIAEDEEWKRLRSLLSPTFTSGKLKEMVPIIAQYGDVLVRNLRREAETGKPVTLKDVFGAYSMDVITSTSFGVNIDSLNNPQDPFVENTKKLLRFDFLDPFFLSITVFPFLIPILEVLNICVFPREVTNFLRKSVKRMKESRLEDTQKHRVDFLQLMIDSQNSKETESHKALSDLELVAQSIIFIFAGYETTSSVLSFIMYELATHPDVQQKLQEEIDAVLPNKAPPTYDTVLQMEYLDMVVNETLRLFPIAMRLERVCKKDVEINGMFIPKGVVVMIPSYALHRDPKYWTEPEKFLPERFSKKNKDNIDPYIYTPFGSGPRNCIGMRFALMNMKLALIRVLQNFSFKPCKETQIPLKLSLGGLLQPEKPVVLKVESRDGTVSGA

[9] = Lipophilicity, logD of compound at pH 8 by HPLC analysis; assay type: physicochemical; conditions: buffer
[10] = Apparent permeability in MDCK cells; assay type: ADME, cell-based, Canis lupus familiaris; conditions: dog
[11] = Aqueous solubility of compound; assay type: physicochemical; conditions: buffer
Cytochrome P450 2C8 = biological target: T4, Cytochrome P450 2C8 (Homo sapiens, UniProt P10632); assay: Reversible inhibition of CYP2C8 in human liver microsomes using amodiaquine as substrate incubated for 5 mins in presence of NADPH-generating system by LC-MS/MS analysis; assay type: ADME, Microsome
T4 sequence (P10632 whole entry): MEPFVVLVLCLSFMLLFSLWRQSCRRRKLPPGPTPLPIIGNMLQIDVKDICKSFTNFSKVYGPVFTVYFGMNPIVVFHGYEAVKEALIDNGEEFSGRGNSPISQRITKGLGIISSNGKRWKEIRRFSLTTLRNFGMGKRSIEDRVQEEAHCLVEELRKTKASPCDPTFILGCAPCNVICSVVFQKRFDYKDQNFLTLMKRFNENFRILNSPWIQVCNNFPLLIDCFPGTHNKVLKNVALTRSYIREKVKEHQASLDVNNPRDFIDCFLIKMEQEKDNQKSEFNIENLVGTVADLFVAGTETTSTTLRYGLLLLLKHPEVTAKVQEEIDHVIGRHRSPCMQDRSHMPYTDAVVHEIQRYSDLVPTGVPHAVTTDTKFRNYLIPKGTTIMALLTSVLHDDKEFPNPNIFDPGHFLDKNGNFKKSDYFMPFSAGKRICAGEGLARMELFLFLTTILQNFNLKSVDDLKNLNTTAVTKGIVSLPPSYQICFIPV

Cytochrome P450 2D6 = Cytochrome P450 2D6 (Homo sapiens, UniProt P10635); assay: Reversible inhibition of CYP2D6 in human liver microsomes using dextromethorphan as substrate incubated for 5 mins in presence of NADPH-generating system by LC-MS/MS analysis; assay type: ADME, Microsome
Sequence of Cytochrome P450 2D6 (P10635 whole entry): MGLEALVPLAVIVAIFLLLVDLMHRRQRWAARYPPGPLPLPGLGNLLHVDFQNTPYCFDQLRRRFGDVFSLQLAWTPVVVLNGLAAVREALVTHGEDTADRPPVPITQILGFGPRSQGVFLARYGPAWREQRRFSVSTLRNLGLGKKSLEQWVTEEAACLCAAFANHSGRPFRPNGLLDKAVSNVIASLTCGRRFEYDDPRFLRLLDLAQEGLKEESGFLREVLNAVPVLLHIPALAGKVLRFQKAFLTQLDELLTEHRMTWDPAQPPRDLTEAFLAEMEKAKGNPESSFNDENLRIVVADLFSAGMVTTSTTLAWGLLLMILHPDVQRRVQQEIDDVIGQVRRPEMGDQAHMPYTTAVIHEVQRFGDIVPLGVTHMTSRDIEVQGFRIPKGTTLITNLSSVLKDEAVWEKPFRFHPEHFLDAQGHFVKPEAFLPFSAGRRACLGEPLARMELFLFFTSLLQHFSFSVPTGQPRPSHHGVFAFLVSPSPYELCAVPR

Cytochrome P450 2B6 [12] = biological target: T3, Cytochrome P450 2B6; assay: Reversible inhibition of CYP2B6 in human liver microsomes using bupropion as substrate incubated for 5 mins in presence of NADPH-generating system by LC-MS/MS analysis; assay type: ADME, Microsome
CYP3A = CYP3A (Homo sapiens, UniProt P08684+P20815+P24462+Q9HB55); assay: Reversible inhibition of CYP3A in human liver microsomes incubated for 5 mins in presence of NADPH-generating system by LC-MS/MS analysis; assay type: ADME, Microsome
[13] = Plasma stability in human assessed as epimerization at 1 uM measured upto 3 hrs by LC-MS/MS analysis; assay type: ADME, cell-free
[14] = Plasma stability in rhesus monkey assessed as epimerization; assay type: ADME, cell-free, Macaca mulatta
[15] = Plasma protein binding in dog assessed as unbound fraction at 1 uM; assay type: ADME, cell-free, Canis lupus familiaris
[16] = Plasma protein binding in monkey assessed as unbound fraction at 1 uM; assay type: ADME, cell-free, Macaca mulatta; conditions: rhesus monkey
SARS-CoV-2 [17] = assay: Antiviral activity against SARS CoV-2 USA-WA1/2020 infected in po dosed B6.Cg-Tg(K18-ACE2)2Prlmn/J mouse assessed as reduction in viral load in lung administered orally twice daily and measured on day 4 post inoculation; assay type: functional, organism-based; conditions: Severe acute respiratory syndrome coronavirus 2, dose 100-500 mg/kg, time 4.0 day

## CNC(=O)C(=O)[C@H](CCC(C)(F)F)NC(=O)[C@@H]1[C@H]2CCC[C@H]2CN1C(=O)[C@@H](NC(=O)OC)C(C)(C)C
[1]
  EC50: > 30 µM
[2]
  bioavailability: 65%
SARS-CoV-2 [3]
  IC50: 0.444 µM
SARS-CoV-2 [4]
  IC50: 0.351 µM
[5]
  Vdss: 2.8 L/kg
[6]
  Vdss: 0.4 L/kg
[7]
  Emax at 30 µM: 29%
Cytochrome P450 2B6 [8]
  Activity: 7%
Cytochrome P450 3A4
  Activity: 22%
[9]
  logD: 2.49
[10]
  Papp: 57 nm/s
[11]
  solubility: 4.5 mg/mL (≈ 8.71 mM)
Cytochrome P450 2C8
  IC50: > 200 µM
Cytochrome P450 2D6
  IC50: > 200 µM
Cytochrome P450 2B6 [12]
  IC50: 159 µM
CYP3A
  IC50 at 5 min: 118 µM
[13]
  Stability: Unstable
[14]
  Stability: Unstable
[15]
  fraction unbound at 1 µM: 0.09
[16]
  fraction unbound at 1 µM: 0.5
SARS-CoV-2 [17]
  Activity: Dose-Dependent Effect
